Reference: article PMC9953885 (Biosensors, 2023)
Counter-ions that a name gives are not always drawn.

Molecular target: T1, human pancreatic lipase (hPL) (Homo sapiens, UniProt P16233)
T1 construct: gene PNLIP
T1 sequence (P16233 17-465): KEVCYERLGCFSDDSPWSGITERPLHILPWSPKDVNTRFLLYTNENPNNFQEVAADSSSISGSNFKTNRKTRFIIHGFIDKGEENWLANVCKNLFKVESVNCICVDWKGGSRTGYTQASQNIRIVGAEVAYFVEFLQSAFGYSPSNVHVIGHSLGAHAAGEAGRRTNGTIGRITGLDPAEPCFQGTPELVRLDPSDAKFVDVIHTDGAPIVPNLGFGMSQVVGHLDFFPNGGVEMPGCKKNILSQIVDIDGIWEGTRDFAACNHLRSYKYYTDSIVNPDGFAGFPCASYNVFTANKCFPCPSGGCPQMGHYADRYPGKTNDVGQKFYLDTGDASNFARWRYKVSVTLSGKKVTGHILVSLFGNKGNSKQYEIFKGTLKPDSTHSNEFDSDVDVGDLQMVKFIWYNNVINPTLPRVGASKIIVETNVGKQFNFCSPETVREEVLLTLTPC
Conditions: 10 µM; inhibitor
Description: First, we evaluated the inhibitory effect of 94 natural products derived from herbs and 94 drugs on hPL. In our high-throughput screening system, 1 ug/mL hPL was used, and the final concentration of the 94 natural products derived from herbs and 94 drugs used was 10 μM. Other conditions were the same as in the selectivity experiments. […] RLE was incubated with hPL and various enzymes, such as hCES1A, hCES2A, CA, AchE, BchE, 5-HKE, lysozyme, trypsin, thrombin, α-CT, FAP, PREP, pepsin, α-amylase, plasmin, notum and hSA, in a 100 µL incubation mixture consisting of Tris-HCl (pH = 7.4, 25 mM), NaCl (150 mM), CaCl2 (1 mM) and porcine bile salt (0.1 mg/mL) at a concentration of 1.5 µg/mL. The reaction was initiated by adding RLE to the preincubated enzyme mixture at 37 °C, and metabolite formation was determined by measuring the fluorescence intensity of resorufin at 590 nm. In addition, several amino acids (IIe, His, Trp, Val, Leu, Tyr, Ala, Thr, Pro, Asp, Lys, Met, Cys, Ser, Phe, Gly, Glu and Gln), ions (Ni^2+, Ca^2+, Na^+, K^+, Cu^2+, Zn^2+, Mg^2+, NH4^+, Cu^+, Fe^2+ and CN^-) and GSH were measured. The concentration of these interfering factors was 5 μM. […] In this case, a visual high-throughput assay was established to screen hPL inhibitors, using RLE as a fluorogenic substrate in a 96-well microplate.

SMILES | % of control remaining [%]
O=c1cc(-c2ccc(O)cc2)oc2cc(O)c([C@@H]3O[C@H](CO)[C@@H](O)[C@H](O)[C@H]3O)c(O)c12 [Isovitexin] | 79.86
COC(=O)[C@@]1(C)CC[C@]2(C(=O)O)CC[C@]3(C)C(=CC[C@@H]4[C@@]5(C)C[C@H](O)[C@H](O)[C@@](C)(CO)[C@@H]5CC[C@]43C)[C@@H]2C1 [phytolaccagenin] | 85.42
CC(C)=CCOc1c2occc2cc2ccc(=O)oc12 [Imperatorin] | 75.61
CC(=O)O[C@@H]1C[C@H](O)[C@@]23CO[C@@H](O)[C@]1(C)[C@@H]2C[C@@H](O)[C@]1(C)[C@@H]3C(=O)[C@H](OC(C)=O)[C@@]2(C)[C@H](c3ccoc3)C[C@H]3O[C@]321 [Toosendanin] | 72.37
COc1ccc(-c2cc(=O)c3c(O)c(OC)c(O)c(OC)c3o2)cc1 [Lysionotin] | 84.30
CC1(C)[C@H](C(=O)O)N2C(=O)C[C@H]2S1(=O)=O [Sulbactam sodium] | 88.89
O=c1cc(-c2ccccc2)oc2cc(O)c(O)c(O)c12 [Baicalein] | 48.80
O=C1C([C@@H]2O[C@H](CO)[C@@H](O)[C@H](O)[C@H]2O)=C(O)/C(=C(O)/C=C/c2ccc(O)cc2)C(=O)C1(O)[C@@H]1O[C@H](CO)[C@@H](O)[C@H](O)[C@H]1O (stereo partly drawn) [Hydroxysafflor yellow A] | 76.59
C#C[C@]1(O)CC[C@H]2[C@@H]3CCC4=CC(=O)CCC4=C3C=C[C@@]21CC [Gestrinone] | 66.72
C[C@H]1CC[C@@]2(OC1)O[C@H]1C[C@H]3[C@@H]4CC[C@@H]5C[C@@H](O[C@@H]6O[C@H](CO)[C@H](O)[C@H](O)[C@H]6O[C@@H]6O[C@H](CO)[C@@H](O)[C@H](O)[C@H]6O)CC[C@]5(C)[C@H]4CC[C@]3(C)[C@H]1[C@@H]2C [Timosaponin A-III] | 95.12
CC(=O)O[C@]1(C(C)=O)CC[C@H]2[C@@H]3C[C@H](C)C4=CC(=O)CC[C@]4(C)[C@H]3CC[C@@]21C [Medroxyprogesterone Acetate] | 68.77
CCC1=C(C)CN(C(=O)NCCc2ccc(S(=O)(=O)NC(=O)N[C@H]3CC[C@H](C)CC3)cc2)C1=O [Glimepiride] | 90.05
COc1ccc2[nH]c([S+]([O-])Cc3ncc(C)c(OC)c3C)nc2c1 (stereo not drawn) [Omeprazole] | 94.84
O=C1C=CC[C@@H]2[C@H]3CCC[N+]4([O-])CCC[C@@H](CN12)[C@@H]34 (stereo partly drawn) [Oxysophocarpine] | 98.58
CCOC(=O)C1=C(C)NC(C)=C(C(=O)OC)C1c1cccc([N+](=O)[O-])c1 (stereo not drawn) [Nitrendipine] | 92.86
CC1=C(O)C(=O)C=C2C1=CC=C1[C@@]2(C)CC[C@@]2(C)[C@@H]3C[C@](C)(C(=O)O)CC[C@]3(C)CC[C@]12C [Celastrol] | 84.16
CN(C)CCOC(c1ccccc1)c1ccccc1 [Diphenhydramine Hydrochloride] | 88.58
Nc1ccn([C@@H]2O[C@H](CO)[C@@H](O)C2(F)F)c(=O)n1 [Gemcitabine] | 105.06
COc1c2occc2cc2ccc(=O)oc12 [8-Methoxypsoralen] | 90.65
CN/C(=N\CCSCc1nc[nH]c1C)NC#N [Cimetidine] | 111.11
Nc1nnc(-c2cccc(Cl)c2Cl)c(N)n1 [Lamotrigine] | 84.88
COc1ccc(-c2cc(=O)c3c(O)cc(O)c(-c4cc(-c5cc(=O)c6c(O)cc(O)cc6o5)ccc4OC)c3o2)cc1 [Isoginkgetin] | 54.78
COc1cc(O)c2c(c1C(=O)/C=C/c1ccc(O)cc1)OC(C)(C)C(O)C2 (stereo not drawn) [Xanthohumol L] | 100.78
COC(=O)C1=C(C)NC(C)=C(C(=O)OCC(C)C)C1c1ccccc1[N+](=O)[O-] (stereo not drawn) [Nisoldipine] | 75.08
CC(C)=CCOc1c2ccoc2cc2oc(=O)ccc12 [Isoimperatorin] | 72.90
Oc1ccc2c(c1)OCO2 [Sesamol] | 103.95
COC(=O)C[C@](O)(CCCC(C)(C)O)C(=O)O[C@@H]1C(OC)=C[C@]23CCCN2CCc2cc4c(cc2[C@H]13)OCO4 [Homoharringtonine] | 74.77
COc1c(O)cc(O)c2c(=O)cc(-c3ccccc3)oc12 [Wogonin] | 106.17
CCOC(=O)N1CCC(=C2c3ccc(Cl)cc3CCc3cccnc32)CC1 [Loratadine] | 96.14

Now from value to compound:

% of control remaining [%] | SMILES
99.42 | NS(=O)(=O)c1cc2c(cc1Cl)NCNS2(=O)=O [Hydrochlorothiazide]
83.60 | CCC/C=C1\OC(=O)C2=C1CCC=C2 [Z-Ligustilide]
97.04 | CC(C)c1nc(CN(C)C(=O)N[C@H](C(=O)N[C@@H](Cc2ccccc2)C[C@H](O)[C@H](Cc2ccccc2)NC(=O)OCc2cncs2)C(C)C)cs1 [Ritonavir]
85.09 | O=C(CCc1ccc(O)cc1)c1c(O)cc(O)cc1O[C@@H]1O[C@H](CO)[C@@H](O)[C@H](O)[C@H]1O [Phlorizin dihydrate]
80.44 | Cc1c(O)c(C)c2c(c1O)C(=O)[C@H](Cc1ccc3c(c1)OCO3)CO2 [Methylophiopogonanone A]
103.44 | NC(=O)N1c2ccccc2C[C@H](O)c2ccccc21 [Eslicarbazepine]
108.93 | CC#CCn1c(N2CCC[C@@H](N)C2)nc2c1c(=O)n(Cc1nc(C)c3ccccc3n1)c(=O)n2C [Linagliptin]
109.84 | N=C(N)NC(=O)c1nc(Cl)c(N)nc1N [Amiloride hydrochloride]
91.81 | CC(=O)NC[C@H]1CN(c2ccc(N3CCOCC3)c(F)c2)C(=O)O1 [Linezolid]
107.55 | CC(C)=CC[C@@H](O)C1=CC(=O)c2c(O)ccc(O)c2C1=O [Shikonin]
86.11 | NCCc1ccc(O)c(O)c1 [3-Hydroxytyramine hydrochloride]
93.75 | CCCN(CCC)S(=O)(=O)c1ccc(C(=O)O)cc1 [Probenecid]
56.43 | O=c1c(O)c(-c2cc(O)c(O)c(O)c2)oc2cc(O)cc(O)c12 [Myricetin]
86.12 | O=c1ccc2cc(O)c(O)cc2o1 [Esculetin]
93.02 | CCOC(=O)C1=C(C)NC(C)=C(C(=O)OC)C1c1cccc(Cl)c1Cl (stereo not drawn) [Felodipine]
103.68 | CC(C)Cc1ccc(C(C)C(=O)O)cc1 (stereo not drawn) [Ibuprofen]
80.44 | COc1ccc(-c2cc(=O)c3c(OC)c(OC)c(OC)c(OC)c3o2)cc1OC [Nobiletin]
118.03 | O=C(O)c1cc(-c2ccc(F)cc2F)ccc1O [Diflunisal]
99.85 | COc1cc2c(=O)c(-c3ccc(O)cc3)coc2cc1O[C@@H]1O[C@H](CO)[C@@H](O)[C@H](O)[C@H]1O [Glycitin]
85.14 | C[C@@H](Oc1cc(-c2cnn(C3CCNCC3)c2)cnc1N)c1c(Cl)ccc(F)c1Cl [Crizotinib]
75.65 | CCCCC1OC(=O)C2=C1CCC=C2 (stereo not drawn) [3-N-butyl-4,5-dihydrophthalide]
105.25 | CCc1c2c(nc3ccc(OC(=O)N4CCC(N5CCCCC5)CC4)cc13)-c1cc3c(c(=O)n1C2)COC(=O)[C@]3(O)CC [Irinotecan]
83.59 | O=c1c(O)c(-c2ccc(O)cc2)oc2c(O)c(O)cc(O)c12 [Herbacetin]
89.14 | C[C@@H]1O[C@@H](O[C@H]2[C@H](OC(=O)[C@]34CCC(C)(C)C[C@H]3C3=CC[C@@H]5[C@@]6(C)C[C@H](O)[C@H](O[C@@H]7O[C@H](CO)[C@@H](O)[C@H](O)[C@H]7O)C(CO)(CO)[C@@H]6CC[C@@]5(C)[C@]3(C)C[C@H]4O)OC[C@H](O)[C@@H]2O)[C@H](O)[C@H](O)[C@H]1O[C@@H]1OC[C@@H](O)[C@H](O[C@@H]2OC[C@](O)(CO)[C@H]2O)[C@H]1O [Platycodin D]
76.99 | CC(=O)Nc1ccc(OC(=O)c2ccccc2OC(C)=O)cc1 [Benorilate]
104.95 | COc1cc2/c(=N/c3ccc(Br)cc3F)nc[nH]c2cc1OCC1CCN(C)CC1 [Vandetanib]
73.04 | Cc1cn([C@H]2C[C@H](N=[N+]=[N-])[C@@H](CO)O2)c(=O)[nH]c1=O [Zidovudine]
104.25 | COc1ccc(-c2coc3cc(O)ccc3c2=O)cc1 [Formononetin]
